Among the test systems are HCC-2998 colon; IGROV1 ovarian; EKVX NSCLC; RPMI-8226 leukemia; SF-268 CNS; NCI-H226 lung; OVCAR-3 ovarian; MCF7 breast; HOP-92 NSCLC; MDA-N; A549 NSCLC; HCT-116 colon; ACHN renal; OVCAR-4 ovarian; SNB-75 CNS; M14 melanoma; MDA-MB-231 breast; HL-60(TB) leukemia; NCI-H23 lung; A498 renal.
Experiment in all cases: NCI tumour cell line growth inhibition, 48 h

Experimental findings from PubChem BioAssay (NCI) are described below.

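Each compound was tested at five concentrations against cells in 96-well plates for 48 hours. TGI is the concentration that stops growth completely.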

For `Cc1c(C)c2c(c(N)c1C#N)C(=O)N(Nc1ccccc1)C2=O`, the TGI with HCC-2998 colon, with IGROV1 ovarian, in the assay on EKVX NSCLC, in the assay with RPMI-8226 leukemia, with SF-268 CNS and with NCI-H226 lung was more than 100 µM each time. The TGI in the assay on OVCAR-3 ovarian, with MCF7 breast, in the assay with HOP-92 NSCLC, with MDA-N, in the assay with A549 NSCLC and with HCT-116 colon was more than 100 µM in each case. For the same compound, the TGI in the assay with ACHN renal, with OVCAR-4 ovarian, in the assay on SNB-75 CNS, in the assay on M14 melanoma, with MDA-MB-231 breast and in the assay on HL-60(TB) leukemia was more than 100 µM throughout.

With `O=C1C=C(Sc2ccccc2)c2nccc3c2c1nc1ccccc13`, the TGI with HCC-2998 colon is 37.8 µM; in the assay on IGROV1 ovarian it was 23.9 µM; in the assay on EKVX NSCLC, 41 µM; in the assay on RPMI-8226 leukemia, more than 100 µM; in the assay with SF-268 CNS it was 26.7 µM; in the assay with NCI-H226 lung, more than 100 µM. Further, the TGI in the assay with OVCAR-3 ovarian is 19.7 µM; in the assay on MCF7 breast, 28.7 µM; in the assay on HOP-92 NSCLC it was 42.3 µM; in the assay on MDA-N it was 33.3 µM; with A549 NSCLC, more than 100 µM; in the assay with HCT-116 colon, 30.3 µM. The TGI was 54.8 µM in the assay on ACHN renal; 31.4 µM in the assay with OVCAR-4 ovarian; more than 100 µM in the assay with SNB-75 CNS; 31.7 µM in the assay with M14 melanoma; 38 µM in the assay on MDA-MB-231 breast; 73.2 µM with NCI-H23 lung. The TGI in the assay with HL-60(TB) leukemia was 4.29 µM.

As to `Cc1nc(Nc2ccccc2Cl)sc1C(=O)CC(=O)C(=O)Nc1c(Cl)cccc1Cl`, the TGI in the assay with HCC-2998 colon was more than 100 µM; in the assay on IGROV1 ovarian it was 63.5 µM; with EKVX NSCLC, 71.1 µM; in the assay with RPMI-8226 leukemia, more than 100 µM; in the assay with SF-268 CNS, more than 100 µM; in the assay with NCI-H226 lung, 49.7 µM. In addition, the TGI in the assay on OVCAR-3 ovarian was 57.8 µM; in the assay on MCF7 breast, more than 100 µM; in the assay with HOP-92 NSCLC it was more than 100 µM; in the assay with MDA-N, more than 100 µM; in the assay on A549 NSCLC, more than 100 µM; in the assay with HCT-116 colon it was 52 µM. Besides, the TGI is more than 100 µM in the assay with ACHN renal; more than 100 µM in the assay with OVCAR-4 ovarian; 88.6 µM with SNB-75 CNS; more than 100 µM in the assay with M14 melanoma; 42.9 µM in the assay on MDA-MB-231 breast; more than 100 µM in the assay on NCI-H23 lung. The compound also yielded a TGI with HL-60(TB) leukemia of 33.6 µM.

Turning to `Cc1nc2ccc(S(=O)(=O)Nc3ccccc3)cc2c(=O)n1NC(=O)CNc1ccccc1`, the TGI in the assay with HCC-2998 colon, in the assay on IGROV1 ovarian, in the assay with EKVX NSCLC, with RPMI-8226 leukemia, in the assay on SF-268 CNS and in the assay on NCI-H226 lung was more than 100 µM throughout. In addition, the TGI with OVCAR-3 ovarian, in the assay with MCF7 breast, with HOP-92 NSCLC, with MDA-N, in the assay on A549 NSCLC and with HCT-116 colon was more than 100 µM throughout. Moreover, the TGI with ACHN renal, with OVCAR-4 ovarian, in the assay with SNB-75 CNS, with M14 melanoma, with MDA-MB-231 breast and in the assay on NCI-H23 lung was more than 100 µM throughout. For the same compound, the TGI with HL-60(TB) leukemia was more than 100 µM.

As for `COc1ccc(C2CC(c3ccccc3)=Nc3c(-c4ccccc4)nnn32)cc1` (configuration not stated), the TGI with IGROV1 ovarian is more than 100 µM; in the assay on RPMI-8226 leukemia, 82.6 µM; with SF-268 CNS, more than 100 µM; in the assay on NCI-H226 lung, more than 100 µM; with OVCAR-3 ovarian, more than 100 µM; with MCF7 breast, more than 100 µM. For the same compound, the TGI in the assay on MDA-N, in the assay with A498 renal, in the assay with A549 NSCLC, in the assay on HCT-116 colon, in the assay on ACHN renal and with M14 melanoma was more than 100 µM each time. Besides, the TGI with MDA-MB-231 breast, with NCI-H23 lung and in the assay with HL-60(TB) leukemia was more than 100 µM in each case.

As for `O=C(CC(C(=O)c1cccs1)c1ccsc1)c1cccs1` (configuration not stated), the TGI in the assay with HCC-2998 colon was more than 100 µM; in the assay on IGROV1 ovarian, more than 100 µM; with EKVX NSCLC, 76.8 µM; in the assay on SF-268 CNS, more than 100 µM; in the assay with NCI-H226 lung it was more than 100 µM; in the assay on OVCAR-3 ovarian, more than 100 µM. In addition, the TGI is more than 100 µM in the assay with MCF7 breast; more than 100 µM in the assay with HOP-92 NSCLC; 80.5 µM in the assay on MDA-N; more than 100 µM in the assay with A498 renal; more than 100 µM in the assay with A549 NSCLC; more than 100 µM in the assay with HCT-116 colon. In addition, the TGI with ACHN renal, in the assay on OVCAR-4 ovarian, with SNB-75 CNS, in the assay with MDA-MB-231 breast and with NCI-H23 lung was more than 100 µM throughout.

For `Cn1nc2ccc3nccc(N4CCN(CCO)CC4)c3c2n1`, the TGI in the assay with HCC-2998 colon, with IGROV1 ovarian, in the assay on SF-268 CNS, in the assay with NCI-H226 lung, in the assay on OVCAR-3 ovarian and in the assay on MCF7 breast was more than 100 µM each time. Moreover, the TGI in the assay on MDA-N, in the assay on A498 renal, in the assay with A549 NSCLC, with HCT-116 colon, with ACHN renal and with OVCAR-4 ovarian was more than 100 µM throughout. The TGI with SNB-75 CNS, with M14 melanoma, in the assay with MDA-MB-231 breast and with NCI-H23 lung was more than 100 µM throughout.

Turning to `CC(=O)NC(C)(C)C1CC=C(C)CC1` (configuration not stated), the TGI in the assay with HCC-2998 colon, in the assay with IGROV1 ovarian, in the assay on EKVX NSCLC, in the assay with RPMI-8226 leukemia, with SF-268 CNS and in the assay with NCI-H226 lung was more than 100 µM in each case. Besides, the TGI with OVCAR-3 ovarian, in the assay on MCF7 breast, with MDA-N, with A498 renal, with A549 NSCLC and in the assay with HCT-116 colon was more than 100 µM each time. The TGI in the assay with ACHN renal, with OVCAR-4 ovarian, in the assay on SNB-75 CNS, in the assay with M14 melanoma, in the assay on MDA-MB-231 breast and with NCI-H23 lung was more than 100 µM throughout. Also, in the assay on HL-60(TB) leukemia, the TGI is more than 100 µM.

In the case of `Cc1ccc(C)n1-n1c(Cc2ccccc2)n[nH]c1=O`, the TGI in the assay with HCC-2998 colon, in the assay on IGROV1 ovarian, in the assay on EKVX NSCLC, in the assay with RPMI-8226 leukemia, in the assay on SF-268 CNS and with NCI-H226 lung was more than 100 µM each time. Moreover, the TGI in the assay on OVCAR-3 ovarian, with MCF7 breast, in the assay on MDA-N, in the assay on A498 renal, in the assay on A549 NSCLC and in the assay on HCT-116 colon was more than 100 µM throughout. Also, the TGI with ACHN renal, in the assay with OVCAR-4 ovarian, in the assay with SNB-75 CNS, with M14 melanoma and with MDA-MB-231 breast was more than 100 µM each time.

As to `COc1ccc(C(=O)Cn2c(C(=O)/C=C/c3ccco3)nc3ccccc32)cc1`, the TGI is 37.1 µM with HCC-2998 colon; more than 100 µM in the assay on IGROV1 ovarian; 88.7 µM in the assay with RPMI-8226 leukemia; 91.4 µM in the assay with SF-268 CNS; more than 100 µM in the assay with NCI-H226 lung; 72.3 µM in the assay on OVCAR-3 ovarian. Also, the TGI in the assay with MCF7 breast, in the assay on HOP-92 NSCLC, in the assay on MDA-N, in the assay with A498 renal, with A549 NSCLC and with HCT-116 colon was more than 100 µM throughout. The TGI in the assay with ACHN renal, with OVCAR-4 ovarian, with SNB-75 CNS, in the assay on M14 melanoma, with MDA-MB-231 breast and with NCI-H23 lung was more than 100 µM in each case. The compound further registered a TGI in the assay with HL-60(TB) leukemia of 71.7 µM.

Regarding `FC(F)(Sc1ccccn1)c1nc2ccccc2o1`, the TGI in the assay with HCC-2998 colon, in the assay on IGROV1 ovarian, in the assay with RPMI-8226 leukemia, with SF-268 CNS, with NCI-H226 lung and in the assay with OVCAR-3 ovarian was more than 100 µM throughout. Further, the TGI in the assay on MCF7 breast, with HOP-92 NSCLC, in the assay on MDA-N, in the assay with A498 renal, in the assay on A549 NSCLC and with HCT-116 colon was more than 100 µM throughout. In addition, the TGI in the assay on ACHN renal, in the assay with OVCAR-4 ovarian, in the assay with M14 melanoma, in the assay with MDA-MB-231 breast and in the assay with NCI-H23 lung was more than 100 µM each time.

Regarding `CCOC(=O)C(/C=N\C(=S)Nc1ccc(Cl)c(Cl)c1)=C(/O)c1ccccc1`, the TGI in the assay with HCC-2998 colon was 60.4 µM; in the assay on IGROV1 ovarian, more than 100 µM; in the assay on EKVX NSCLC it was more than 100 µM; with SF-268 CNS, more than 100 µM; with NCI-H226 lung, more than 100 µM; in the assay with MCF7 breast it was more than 100 µM. For the same compound, the TGI with MDA-N was more than 100 µM; with A498 renal it was 20.4 µM; with A549 NSCLC it was more than 100 µM; with HCT-116 colon, more than 100 µM; in the assay with ACHN renal it was more than 100 µM; with OVCAR-4 ovarian, more than 100 µM. The TGI in the assay with SNB-75 CNS is 55.9 µM; with M14 melanoma, more than 100 µM; in the assay on MDA-MB-231 breast, 90.9 µM; with NCI-H23 lung it was more than 100 µM; in the assay on HL-60(TB) leukemia, more than 100 µM.
